Source: patent publication EP3502102A1, “STING INHIBITORS” (ECOLE POLYTECHNIQUE FEDERALE DE LAUSANNE (EPFL), priority 2017, dated 2019)
Residue numbers refer to the chain shown, from its start.

Key:
[1] = molecular target: T1, endogenous human transferrin receptor (Homo sapiens, UniProt P02786); test: Metabolic labelling with [3H] palmitate, endogenous transferrin receptor; assay type: cell-based; conditions: 1 µM
T1 construct: endogenous in cells; host or cells: HEK293T

STING = molecular target: T2, STING (Mus musculus, UniProt Q3TBT3); test: High-throughput screen and secondary screen in HEK293T cells expressing mCherry-STING, cdG-Syn versus RIG-I; assay type: cell-based; design: expressed in transfected cells; host or cells: HEK293T; conditions: primary screen and counter-screen; library compounds 10 µM
T2 sequence (Q3TBT3 1-378): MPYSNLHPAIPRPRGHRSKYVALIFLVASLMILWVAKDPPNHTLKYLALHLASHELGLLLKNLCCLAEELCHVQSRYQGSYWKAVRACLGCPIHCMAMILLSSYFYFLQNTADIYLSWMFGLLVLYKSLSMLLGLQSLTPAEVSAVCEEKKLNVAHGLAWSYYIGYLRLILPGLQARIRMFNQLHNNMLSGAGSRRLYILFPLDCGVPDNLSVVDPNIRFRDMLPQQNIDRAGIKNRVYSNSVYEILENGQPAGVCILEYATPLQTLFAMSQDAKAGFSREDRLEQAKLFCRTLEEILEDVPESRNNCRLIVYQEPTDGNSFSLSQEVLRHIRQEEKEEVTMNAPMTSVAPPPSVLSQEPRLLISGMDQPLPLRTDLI
Protocol: Reporter activity was measured 16 h after compound treatment. A nonlinear regression analysis was performed. […] Circles indicate substitutes compared to C-176. d, e, Chemical compounds from ([…]) in conjunction with IFN-• luciferase reporter, respectively. b, e, f, Values of inhibitor-treated cells were normalized to DMSO-treated cells. […] Cytokine levels were normalized to DMSO-treated control cells. A nonlinear regression analysis was performed for cGAMP stimulation. b, c, BMDMs were pre-treated with C-178 (0.25 µM) and stimulated with cGAMP, cyclic di-GMP, CMA, 90mer dsDNA or LPS for 3 h. The induction of Ifnb1 mRNA levels was assessed by RT-qPCR. d, Heatmaps of RNA sequencing analysis of BMDMs treated with DMSO or CMA and with or without addition of C-178. […] Reporter activity was measured 16 h after transfection and values were normalized to DMSO-treated control cells. c, BMDMs were treated with C-178 (0.25 µM) for 1 h, washed or left untreated and after an additional hour stimulated with cGAMP. […] Flag-STING was immunoprecipitated from whole cell lysate and analysed by autoradiography. In parallel, cell lysates were analysed by immunoblotting for p-TBK1 and STING. d, HEK293T cells expressing STING were treated as indicated (C-178 (1 µM)) and stimulated with CMA for 1.5 h. […] Depicted genes were measured by RT-qPCR.

Flag-STING [2] = molecular target: T3, Flag-STING (Mus musculus, UniProt Q3TBT3, C91S); test: Protein mass spectrometry of immunoprecipitated Flag-STING; assay type: binding; conditions: Flag-STING C91S; 1µM
T3 construct: expressed in transfected cells; host or cells: HEK293T (lentiviral transduction, induced overnight)
T3 sequence (Q3TBT3 1-378 C91S): T2 sequence (Q3TBT3 1-378) with C91S

Flag-STING [3] = molecular target: T4, Flag-STING (Mus musculus, UniProt Q3TBT3); test: as above; assay type: binding; conditions: Flag-STING; 1 µM, 30min
T4 construct: expressed in transfected cells; host or cells: HEK293T (lentiviral transduction, induced overnight)
T4 sequence (Q3TBT3 1-378): T2 sequence (Q3TBT3 1-378)

T1 sequence (P02786 whole entry): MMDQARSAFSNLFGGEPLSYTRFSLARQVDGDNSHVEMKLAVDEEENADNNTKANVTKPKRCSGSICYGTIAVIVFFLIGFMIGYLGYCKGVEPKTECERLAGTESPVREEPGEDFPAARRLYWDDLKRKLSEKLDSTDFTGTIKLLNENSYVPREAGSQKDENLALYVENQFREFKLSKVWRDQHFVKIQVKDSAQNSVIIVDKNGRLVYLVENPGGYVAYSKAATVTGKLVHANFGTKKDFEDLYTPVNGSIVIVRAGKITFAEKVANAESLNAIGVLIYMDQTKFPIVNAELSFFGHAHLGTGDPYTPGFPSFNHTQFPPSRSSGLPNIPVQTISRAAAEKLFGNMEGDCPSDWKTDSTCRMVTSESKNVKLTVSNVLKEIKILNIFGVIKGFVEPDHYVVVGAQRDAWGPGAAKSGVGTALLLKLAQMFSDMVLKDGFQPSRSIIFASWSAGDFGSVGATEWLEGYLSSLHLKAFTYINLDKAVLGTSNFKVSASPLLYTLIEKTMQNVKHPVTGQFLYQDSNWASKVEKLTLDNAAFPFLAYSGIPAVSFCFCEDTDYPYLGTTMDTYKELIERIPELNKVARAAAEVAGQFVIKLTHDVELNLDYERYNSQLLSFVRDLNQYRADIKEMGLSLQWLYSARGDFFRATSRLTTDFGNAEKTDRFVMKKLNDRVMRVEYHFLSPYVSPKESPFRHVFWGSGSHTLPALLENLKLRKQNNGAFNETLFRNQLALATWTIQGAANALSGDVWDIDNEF

O=C(Nc1ccc(I)cc1)c1ccc([N+](=O)[O-])o1 [C-176, N-(4-iodophenyl)-5-nitro-2-furamide]
[^3H] palmitate labelling of the endogenous transferrin receptor [1]: neither C-178 nor C-176 affected | IFN signal in response to cdG-Syn/STING versus RIG-I (STING): selectively reduced the IFN signal in response to cdG-Syn/STING but not to RIG-I | covalent binding to STING-C91S (Flag-STING [2]): absence of covalent binding | covalent modification of STING, mass shift (Flag-STING [3]): irreversibly modify STING
